Assay results as given in US20090131512A1, “Inhibition of type I in IFN production” (Dynavax Technologies Corp., priority 2007, published 2009).
Entries after “also recorded” stand apart in the source; their conditions may differ.

Legend:
[1] = test system: NF-kB p65 (pS529); assay: NF-kB p65 phosphorylation in pDC, flow cytometry; type: cell-based, human; settings: CpG-C 1 μM; LY 1 or 5 μM, NF-kB inhibitor 0.5 μM; 90 min
Procedure: Accordingly, purified PDC were cultured with CpG-C ISS (1 μM) with or without PI3K inhibitor LY (1 μM or 5 μM) or NF-kB inhibitor (0.5 μM) for 90 min and analyzed by NF-kB flow cytometry. As described above, negatively purified pDC were stimulated with CpG-C and cells were immediately fixed with 4% of paraformaldehyde for 15 min a 37 C. Cells were then washed, permeabilized with PermBuffer III (BD bioscience) for 30 minutes on ice and stained with either Alexa-647 anti-human NF-kB p65 (pS529) for 30 min and then analyzed by flow cytometry.

[2] = test system: purified human pDC; assay: IFN-α production by TLR-activated purified pDC, ELISA; type: cell-based; settings: for IFN-α production: subunit-specific PI3K inhibitors
[3] = test system: purified pDC; assay: pDC viability, flow cytometry based LIVE/DEAD assay; type: cell-based, human; settings: CpG-C 1 μM plus various concentrations of LY; 20 h; listed as LY
Procedure: Purified pDC were stimulated with CpG-C ISS (1 μM) either alone or in combination with various concentration of PI3K inhibitor LY. After 20 h, viability was assessed using a flow cytometry based viability assay (LIVE/DEAD Viability/Cytotoxicity Kit from Molecular Probe). Average of […] independent donors is shown.

[4] = test system: purified pDC; assay: IL-6 and TNF-α production by TLR-activated pDC, ELISA and real-time PCR; type: cell-based, human; settings: CpG-A or CpG-B 0.5 μM; 16 hr; ELISA

NC(=O)Nc1sc(-c2ccc(F)cc2)cc1C(N)=O [NF-kB inhibitor]
NF-kB phosphorylation [1]: inhibited

O=C1NC(=O)/C(=C/c2ccc3c(c2)OC(F)(F)O3)S1 [AS604850]
concentration at which an effect on IFN-α production is observed ([2]; CpG-C 1 μM, 16 hr, specificity for gamma subunit lost): > 20 µM | IFN-α production ([2]; CpG-C 1 μM, 16 hr): did not observe any effect

O=c1cc(N2CCOCC2)oc2c(-c3ccccc3)cccc12 [LY294002]
inhibition of IFN-α ([2]; LY concentrations as low as 0.08 μM, TLR9): 50% | concentration of maximal effect on IFN-α production ([2]; both TLR7 and TLR9 ligands, 16 hr): 1.25 µM | pDC viability [3]: no negative effect; also recorded: does not affect | IL-6 production in response to CpG-A and CpG-B [4]: no significant inhibition

Cc1ccccc1-n1c(Cn2cnc3c(N)ncnc32)nc2cccc(C)c2c1=O [IC87114]
IFN-α production ([2]; CpG-C 1 μM, 16 hr): inhibited
